Results published in patent US20230100235A1, “ANTICANCER AGENT COMPOSITION” (CARNA BIOSCIENCES, INC., priority 2020, published 2023).

Legend:
[1] = tested on: U2932 cells; assay: Dose-response study of BTK inhibitor in the presence of BCL-2 inhibitor, U2932; assay type: cell-based; conditions: Homo sapiens, read-out: Inhibitory activity on cell proliferation U2932 IC50
Procedure: (§1) The OCI-Ly10 or U2932 cells (20000 cells/well) were seeded into 96-well plates (cell plates), to which the test compound diluted with the medium was added at final concentrations of 0.009 nM to 30000 nM (a final DMSO concentration of 0.3%), and after 96 hours of culture, an Alamar Blue reagent (Thermo Fisher Scientific Inc.) was added. After 3 hours, the fluorescence of excitation wavelength 560 nm/fluorescence wavelength 590 nm was measured and IC50 values of inhibitory activity were determined by setting a compound-free and cell-free well as 100% and a compound-free and cell-containing well as 0%.
(§2) Changes in IC50 values of the BTK inhibitor in the presence of the BCL-2 inhibitor at various concentrations were examined.
From the result obtained for the BCL-2 inhibitor used as a single agent, BCL-2 inhibitor concentrations for three doses were selected for each cancer cell line.

[2] = tested on: BTK-C481S-mutant OCI-Ly10 cells; assay: Cell proliferation suppression test of single agents, BTK-C481S-mutant OCI-Ly10; assay type: cell-based, Human; conditions: Homo sapiens, OCI-Ly10; single agent; read-out: Inhibitory activity on cell proliferation OCI-Ly10 BTK-C481S IC50
Procedure: as §1
(§3) BTK-C481S-mutant OCI-Ly10 cells were produced by point mutation knock-in using the CRISPR-Cas9 system. Cas9 protein (Thermo Fisher Scientific Inc.), guide RNA prepared with GeneArt™ Precision gRNA Synthesis Kit (Thermo Fisher Scientific Inc.), and a single-stranded synthetic oligonucleotide to replace 481st cysteine residue of BTK with a serine residue were introduced into OCI-Ly10 cells by an electroporation method. The resulting modified OCI-Ly10 cells were cultured in the presence of ibrutinib, and the grown cells were used as BTK-C481S-mutant OCI-Ly10 cells. Transduction of the mutation was confirmed by genomic DNA and mRNA sequence analysis.
In the same manner as in Test Example 1, IC50 values for each inhibitor single agent were determined.

[3] = tested on: BTK-C481S-mutant OCI-Ly10 cells; assay: Dose-response study of BTK inhibitor in the presence of BCL-2 inhibitor, BTK-C481S-mutant OCI-Ly10; assay type: cell-based; conditions: Homo sapiens, read-out: Inhibitory activity on cell proliferation OCI-Ly10 BTK-C481S IC50
Procedure: as §3
BTK-C481S-mutant lymphoma cells were used to examine changes in IC50 values of the BTK inhibitor in the presence of various concentrations of BCL-2 inhibitor.
From the results obtained for the BCL-2 inhibitor used as a single agent, BCL-2 inhibitor concentrations for three doses were selected for BTK-C481-mutant OCI-Ly10 cells.

[4] = tested on: OCI-Ly10 cells; assay: Dose-response study of BTK inhibitor in the presence of BCL-2 inhibitor, OCI-Ly10; assay type: cell-based; conditions: Homo sapiens, read-out: Inhibitory activity on cell proliferation OCI-Ly10 IC50
Procedure: as §1, §2

[5] = tested on: U2932 cells; assay: Cell proliferation suppression test of single agents, U2932 (Alamar Blue, 96 h); assay type: cell-based, Human; conditions: Homo sapiens, U2932, single agent, read-out: Inhibitory Activity on cell proliferation IC50 U2932
Procedure: Human lymphoma cell line U2932 cells (obtained from DSMZ) were cultured in a 5% CO2 incubator using RPMI medium (Roswell Park Memorial Institute medium, Thermo Fisher Scientific Inc.) containing 10% fetal bovine serum (GE Healthcare) and 1% penicillin streptomycin (NACALAI TESQUE, INC.).
as §1

[6] = tested on: OCI-Ly10 cells; assay: Cell proliferation suppression test of single agents, OCI-Ly10 (Alamar Blue, 96 h); assay type: cell-based, Human; conditions: Homo sapiens, OCI-Ly10, single agent, read-out: Inhibitory Activity on cell proliferation IC50 OCI-Ly10
Procedure: Human lymphoma cell line OCI-Ly10 cells (obtained from University Health Network) were cultured in a 5% CO2 incubator using IMDM medium (Iscove's Modified Dulbecco's Medium, Thermo Fisher Scientific Inc.) containing 20% fetal bovine serum (GE Healthcare) and 1% penicillin streptomycin (NACALAI TESQUE, INC.).
as §1

[7] = OCI-Ly10, in the presence of S-55746 10 nM
[8] = OCI-Ly10, in the presence of S-55746 30 nM
[9] = OCI-Ly10, in the presence of S-55746 100 nM
[10] = OCI-Ly10, in the presence of navitoclax 10 nM
[11] = OCI-Ly10, in the presence of navitoclax 30 nM
[12] = OCI-Ly10, in the presence of navitoclax 100 nM
[13] = OCI-Ly10, in the presence of obatoclax mesylate 50 nM
[14] = OCI-Ly10, in the presence of obatoclax mesylate 100 nM
[15] = OCI-Ly10, in the presence of obatoclax mesylate 200 nM
[16] = OCI-Ly10, in the presence of venetoclax 1 nM
[17] = OCI-Ly10, in the presence of venetoclax 3 nM
[18] = OCI-Ly10, in the presence of venetoclax 10 nM
[19] = OCI-Ly10, obatoclax mesylate 0 nM

Cn1cc(Nc2nc(N)nc(-c3cccc(-n4ccc5cc(C6CC6)cc(F)c5c4=O)c3CO)n2)cn1 [Compound (II-A), 2-(3-{4-Amino-6-[(1-methyl-1H-pyrazol-4-yl)amino]-1,3,5-triazin-2-yl}-2-(hydroxymethyl)phenyl)-6-cyclopropyl-8-fluoroisoquinolin-1(2H)-one]
IC50 ([1]; U2932, S-55746 0 nM): > 30000 nM | IC50 ([1]; U2932, in the presence of S-55746 100 nM): 5740 nM | IC50 ([1]; U2932, in the presence of S-55746 300 nM): 930 nM | IC50 ([1]; U2932, in the presence of S-55746 1000 nM): 100 nM | IC50 ([1]; U2932, in the presence of navitoclax 30 nM): 13400 nM | IC50 ([1]; U2932, in the presence of navitoclax 100 nM): 1360 nM | IC50 ([1]; U2932, in the presence of navitoclax 300 nM): 100 nM | IC50 ([1]; U2932, in the presence of obatoclax mesylate 50 nM): 28700 nM | IC50 ([1]; U2932, in the presence of obatoclax mesylate 100 nM): 25800 nM | IC50 ([1]; U2932, in the presence of venetoclax 3 nM): 8510 nM | IC50 ([1]; U2932, in the presence of venetoclax 10 nM): 2190 nM | IC50 ([1]; U2932, in the presence of venetoclax 100 nM): 160 nM | IC50 ([1]; U2932, navitoclax 0 nM): > 30000 nM | IC50 ([1]; U2932, obatoclax mesylate 0 nM): > 30000 nM | IC50 ([1]; U2932, venetoclax 0 nM): > 30000 nM | IC50 [2]: 150 nM | IC50 ([3]; OCI-Ly10, S-55746 0 nM): 150 nM | IC50 [3, 7]: 94 nM | IC50 [3, 8]: 69 nM | IC50 [3, 9]: 39 nM | IC50 [3, 10]: 260 nM | IC50 [3, 11]: 210 nM | IC50 [3, 12]: 110 nM | IC50 [3, 13]: 100 nM | IC50 [3, 14]: 95 nM | IC50 [3, 15]: 61 nM | IC50 [3, 16]: 110 nM | IC50 [3, 17]: 80 nM | IC50 [3, 18]: 53 nM | IC50 ([3]; OCI-Ly10, navitoclax 0 nM): 340 nM | IC50 [3, 19]: 300 nM | IC50 ([3]; OCI-Ly10, venetoclax 0 nM): 150 nM | IC50 ([4]; OCI-Ly10, S-55746 0 nM): 33 nM | IC50 [4, 7]: 29 nM | IC50 [4, 8]: 25 nM | IC50 [4, 9]: 18 nM | IC50 [4, 10]: 51 nM | IC50 [4, 11]: 42 nM | IC50 [4, 12]: 26 nM | IC50 [4, 13]: 25 nM | IC50 [4, 14]: 28 nM | IC50 [4, 15]: 30 nM | IC50 [4, 16]: 38 nM | IC50 [4, 17]: 27 nM | IC50 [4, 18]: 19 nM | IC50 ([4]; OCI-Ly10, navitoclax 0 nM): 59 nM | IC50 [4, 19]: 38 nM | IC50 ([4]; OCI-Ly10, venetoclax 0 nM): 42 nM | IC50 [5]: 34700 nM | IC50 [6]: 42 nM
